Assay results from US8129527B2, “Analogs of dehydrophenylahistins and their therapeutic use” (Nereus Pharmacuticals, Inc., priority 2006, dated 2012).
In brackets after ≈: the same amount, converted by molar mass. Where two headings read alike, the source gives them in different places. Marks after values point to notes of the source that are not given here. Each block holds one compound with its values, some of them ahead of it.

Key:
[1] = system: HT-29 human colorectal carcinoma cells; assay: Cytotoxic effect against HT-29 cells (Table 30); format: cell-based
Procedure: The following additional dehydrophenylahistin derivatives were synthesized according to the methods described herein and their cytotoxic effect against HT-29 human colorectal carcinoma cells were determined.

[2] = system: Candida glabrata; assay: Antifungal susceptibility testing, broth dilution (MIC/MFC); format: cell-based; conditions: C. glabrata
Procedure: (§1) Specifically, disclosed compounds were evaluated alongside commercially available microtubulin inhibitors as well as recognized antifungal agents.
(§2) Microorganisms against which these compounds were tested included: Candida albicans, Candida glabrata, Aspergillus fumigatus, Trichophyton rubrum, Trichophyton mentagrophytes, Epidermophyton floccosum. With the exception of Candida glabrata (one isolate), two isolates of each species were tested.
(§3) The minimum lethal concentration (MLC) was determined by plating […] from the MIC concentration and each concentration above the MIC. […] When a MIC was obtained, a minimum fungicidal concentration (MFC) was determined to assess the fungistatic/fungicidal nature of the compound.

[3] = system: Candida albicans; assay: as above; format: cell-based
Procedure: as §1, §2, §3

[4] = system: MES-SA/Dx5 (Taxol Resistant) human uterine sarcoma; assay: Drug resistant cell line pair, cytotoxicity (Example 10B); format: cell-based; conditions: vs MES-SA
Text: 1) Human Uterine Sarcoma Tumor Cell Line Pair: MES-SA (Taxol Sensitive) and MES-SA/Dx5 (Taxol Resistant).

[5] = system: HT-29 human colon tumor; assay: HT-29 Human Colon Tumor Xenograft Model; format: in vivo; conditions: for Chemotherapeutic Agent Result TGI %: CPT-11 alone 100 ip qwx3
Procedure: Selected novel compounds were administered as monotherapy via the intraperitoneal (i.p.) route at the doses indicated for the individual study; for the combination studies the selected reference chemotherapy agents were injected 15-30 min prior to the compound.
Saline dilutions are used to achieve the injection concentrations used for the reference compounds.
Animals were implanted subcutaneously (s.c.) by trocar with fragments of HT-29 tumors harvested from s.c. growing tumors in nude mice hosts. When the tumor size reached 5 mm×5 mm (about 10-17 days) the animals were matched into treatment and control groups. Mice were weighed twice weekly and tumor measurements were obtained using calipers twice weekly, starting on Day 1. The tumor measurements were converted to estimated mg tumor weight using the formula (W^2×L)/2. When the estimated tumor weight of the control group reached an average of 1000 mg the mice were weighed, sacrificed and the tumor removed.

[6] = system: Trichophyton rubrum; assay: Antifungal susceptibility testing, broth dilution (MIC/MFC); format: cell-based; conditions: Trichophyton species
Procedure: as §1, §2, §3

[7] = system: HT-29 human colon cells; assay: Tumor cytotoxicity assay, resazurin fluorescence, 48 h (Example 6); format: cell-based; conditions: for EC50: Homo sapiens; for cytotoxic activity against HT-29 cells: in words
[8] = system: Aspergillus fumigatus; assay: Antifungal susceptibility testing, broth dilution (MIC/MFC); format: cell-based; conditions: Aspergillus fumigatus, A. fumigatus isolate #1; read-out: MIC
Procedure: as §1, §2, §3

[9] = Colon HT-29 (3 studies), CPT-11 Days 1, 8, 15 alone
[10] = HT-29 cells, read-out: EC50 (M) Mean

Compound: COC(=O)c1cccc(/C=c2\[nH]c(=O)/c(=C/c3nc[nH]c3C(C)(C)C)[nH]c2=O)c1 [Compound 2527]
EC50 ([1]; HT-29, read-out: EC50 (M) Mean): 1.9e-07 M

MIC [2]: 1 µg/mL (≈ 1.08 µM) | MIC ([3]; C. albicans 10231): 0.5 µg/mL (≈ 0.541 µM) | MIC ([3]; C. albicans 90028): 0.5 µg/mL (≈ 0.541 µM)
Compound: C[C@@H]1[C@H](O)[C@@H](C)/C=C/C=C/C=C/C=C/C=C/C=C/C=C/[C@H](O[C@@H]2O[C@H](C)[C@@H](O)[C@H](N)[C@@H]2O)C[C@@H]2O[C@](O)(C[C@@H](O)C[C@@H](O)[C@H](O)CC[C@@H](O)C[C@@H](O)CC(=O)O[C@H]1C)C[C@H](O)[C@H]2C(=O)O [amphotericin B, Amphotericin B]
MFC [2]: 1 µg/mL (≈ 1.08 µM) | MFC ([3]; C. albicans 10231): 0.5 µg/mL (≈ 0.541 µM) | MFC ([3]; C. albicans 90028): 0.5 µg/mL (≈ 0.541 µM)

Compound: COc1cc([C@@H]2c3cc4c(cc3[C@@H](O[C@@H]3O[C@@H]5CO[C@@H](C)O[C@H]5[C@H](O)[C@H]3O)[C@H]3COC(=O)[C@H]23)OCO4)cc(OC)c1O [etoposide, Etoposide, reference compound]
reduced susceptibility of the MES-SA/DX5 cell line [4]: 60 fold

Compound: CCc1c2c(nc3ccc(OC(=O)N4CCC(N5CCCCC5)CC4)cc13)-c1cc3c(c(=O)n1C2)COC(=O)[C@]3(O)CC [CPT-11, Irinotecan, reference compound]
Tumor Growth Inhibition (%) Reference Agent [5, 9]: 37 ± 3% | Tumor Regression (#/total) Reference Agent [5, 9]: 0/30 | Chemotherapeutic Agent Result TGI % ([5]; Study 2139): 32.7% | Chemotherapeutic Agent Result TGI % ([5]; Study 2164): 39* % | Chemotherapeutic Agent Result TGI % ([5]; Study 2288): 36.5* % | TGI vs NCI criterion ([5]; study of KPU-2, KPU-35 and t-butyl-phenylahistin +/- CPT-11): did not reach this level

Compound: COc1ccc(/C=c2\[nH]c(=O)/c(=C/c3nc[nH]c3C(C)(C)C)[nH]c2=O)c(OC)c1OC [KPU-17, tBu-ΔPLH-2,3,4-triOMe]
antifungal potency compared with griseofulvin [6]: equivalent in potency or in some cases more potent than griseofulvin | EC50 ([7]; HT-29, Table 3, read-out: EC50 (nM) HT-29): 4060 nM | cytotoxic activity against HT-29 cells [7]: also showed activity

Compound: CC(C)(C)c1[nH]cnc1/C=c1\[nH]c(=O)/c(=C/c2cccc(C(N)=O)c2)[nH]c1=O [Compound 2529]
EC50 ([1]; HT-29, read-out: EC50 (M) Mean): 5e-06 M

Compound: CC(C)(C)c1[nH]cnc1/C=c1\[nH]c(=O)/c(=C/c2cccc(C(=O)O)c2)[nH]c1=O [Compound 2528]
EC50 [1, 10]: > 2e-05 M

Compound: CCCCNC(=O)n1c(NC(=O)OC)nc2ccccc21 [benomyl, Benomyl]
MFC ([2]; Nakaseomyces glabratus, read-out: MFC): > 512 µg/mL | MIC ([2]; Nakaseomyces glabratus, read-out: MIC): 64 µg/mL (≈ 220 µM) | MFC ([3]; Candida albicans, C. albicans 90028, read-out: MFC): > 512 µg/mL | MIC ([3]; Candida albicans, C. albicans 90028, read-out: MIC): 64 µg/mL (≈ 220 µM)

Compound: COc1cccc2c1C(=O)c1c(O)c3c(c(O)c1C2=O)C[C@@](O)(C(=O)CO)C[C@@H]3O[C@H]1C[C@H](N)[C@H](O)[C@H](C)O1 [doxorubicin, Doxorubicin, reference compound]
reduced susceptibility of the MES-SA/DX5 cell line [4]: 34 fold

Compound: CC(C)(C)c1ocnc1/C=c1\[nH]c(=O)/c(=C/c2cccc(C(=O)c3ccc(CN)cc3)c2)[nH]c1=O [Compound 2534]
EC50 ([1]; HT-29, read-out: EC50 (M) Mean): 5.3e-07 M

Compound: CC(C)(C)c1[nH]cnc1/C=C1\NC(=O)[C@H](Cc2ccccc2)NC1=O [t-butylphenylahistin]
antifungal potency compared with griseofulvin [6]: equivalent in potency or in some cases more potent than griseofulvin

Compound: CC(C)(C)c1ocnc1/C=c1\[nH]c(=O)/c(=C/c2cccc(Oc3ccccc3)c2)[nH]c1=O
melting point: 171 to 173 °C

melting point: 149 to 151 °C
Compound: CC(C)(C)c1ocnc1/C=c1\[nH]c(=O)/c(=C/c2ccccc2[N+](=O)[O-])[nH]c1=O [KPU-215, 3-{(Z)-1-[5-(tert-Butyl)-1H-4-oxazolyl]methylidene}-6-[(Z)-1-(2-nitrophenyl)methlidene]-2,5-piperazinedione]

MIC [8]: 1 µg/mL (≈ 1.42 µM)
Compound: CCC(C)n1ncn(-c2ccc(N3CCN(c4ccc(OCC5COC(Cn6cncn6)(c6ccc(Cl)cc6Cl)O5)cc4)CC3)cc2)c1=O (centres unmarked) [itraconazole, Itraconazole, reference compound]

Compound: CC(C)(C)c1ocnc1/C=c1\[nH]c(=O)/c(=C/c2cccc(C(=O)c3ccccc3)c2)[nH]c1=O
melting point: 151 to 153 °C

Compound: Cc1ccccc1/C=c1\[nH]c(=O)/c(=C/c2ncoc2C(C)(C)C)[nH]c1=O
melting point: 177 to 179 °C

Compound: Cc1cccc(/C=c2\[nH]c(=O)/c(=C/c3ncoc3C(C)(C)C)[nH]c2=O)c1C
melting point: 167 to 169 °C

Compound: CC(C)(C)c1ocnc1/C=c1\[nH]c(=O)/c(=C/c2cccc(C(N)=O)c2)[nH]c1=O [Compound 2533]
EC50 [1, 10]: 1.8e-06 M

Compound: CC(C)(C)c1ocnc1/C=c1\[nH]c(=O)/c(=C/c2ccc(Cl)o2)[nH]c1=O
melting point: 214 to 216 °C

Compound: CC(C)(C)c1ocnc1/C=c1\[nH]c(=O)/c(=C/c2cccc3ccccc23)[nH]c1=O
melting point: 168 to 170 °C

Compound: CC(C)(C)c1ocnc1/C=c1\[nH]c(=O)/c(=C/c2cc3ccccc3n2S(=O)(=O)c2ccccc2)[nH]c1=O
melting point: 145 to 147 °C

melting point: 202 to 204 °C
Compound: CC(C)(C)c1ocnc1/C=c1\[nH]c(=O)/c(=C/c2cc(Cl)cc(Cl)c2)[nH]c1=O [KPU-209, 3-{(Z)-1-[5-(tert-Butyl)-1H-4-oxazolyl]methylidene}-6-[(Z)-1-(3,5-dichlorophenyl)methlidene]-2,5-piperazinedione]

Compound: COc1cc(/C=c2\[nH]c(=O)/c(=C/c3nc[nH]c3C(C)(C)C)[nH]c2=O)cc(OC)c1OC [KPU-11, tBu-ΔPLH-3,4,5-triOMe]
antifungal potency compared with griseofulvin [6]: equivalent in potency or in some cases more potent than griseofulvin | EC50 ([7]; HT-29, read-out: EC50 HT-29, Table 3, cells printed in μM): > 20000 nM | cytotoxic activity against HT-29 cells [7]: also showed activity

Compound: CC(C)(C)c1ocnc1/C=c1\[nH]c(=O)/c(=C/c2cccc(C(=O)c3ccc(CNC(=O)CCCCCNC(=O)CCCCCNC(=O)CCCC[C@@H]4SC[C@H]5NC(=O)N[C@@H]45)cc3)c2)[nH]c1=O [Compound 2545]
EC50 [1, 10]: 1.1e-06 M

Compound: CC(C)(C)c1[nH]cnc1/C=c1\[nH]c(=O)/c(=C/c2cccc(OP(=O)(O)O)c2)[nH]c1=O [Compound 2521]
EC50 ([1]; HT-29, read-out: EC50 (M) Mean): 2.8e-07 M

melting point: 171 to 173 °C
Compound: COc1cc(/C=c2\[nH]c(=O)/c(=C/c3ncoc3C(C)(C)C)[nH]c2=O)cc(OC)c1 [KPU-208, 3-{(Z)-1-[5-(tert-Butyl)-1H-4-oxazolyl]methylidene}-6-[(Z)-1-(3,5-dimethoxyphenyl)methlidene]-2,5-piperazinedione]

melting point: 212 to 214 °C
Compound: CC(C)(C)c1ocnc1/C=c1\[nH]c(=O)/c(=C/c2c(F)ccc(F)c2F)[nH]c1=O [KPU-238, 3-{(Z)-1-[5-(tert-Butyl)-1H-4-oxazolyl]methylidene}-6-[(Z)-1-(2,36-trifluorophenyl)methlidene]-2,5-piperazinedione]
